Laboratory results from ChEMBL document CHEMBL1201862, “PubChem BioAssay data set” (2004).
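Compound exposure: 48 hours, 5 concentrations, 96-well plates. GI50 marks 50% less growth.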 Active and inactive are the calls of the source. Cut-off read from the data, not from the text of the source: active = GI50 up to about 1.1 µM and inactive = higher.

How the values were obtained:
Assay in all cases: inhibition of tumour cell growth, NCI panel, 48 h
LOX IMVI = system: LOX IMVI
UO-31 = system: UO-31
DMS-273 = system: DMS-273
HCT-116 = system: HCT-116
K562 = system: K562
OVCAR-5 = system: OVCAR-5
OVCAR-8 = system: OVCAR-8
KM12 = system: KM12
COLO 205 = system: COLO 205
HCT-15 = system: HCT-15
NCI-H460 = system: NCI-H460
SF-268 = system: SF-268
M14 = system: M14
SNB-75 = system: SNB-75
EKVX = system: EKVX

Structure (SMILES) | GI50 (LOX IMVI) | GI50 (UO-31) | GI50 (DMS-273) | GI50 (HCT-116) | GI50 (K562) | GI50 (OVCAR-5) | GI50 (OVCAR-8) | GI50 (KM12) | GI50 (COLO 205) | GI50 (HCT-15) | GI50 (NCI-H460) | GI50 (SF-268) | GI50 (M14) | GI50 (SNB-75) | GI50 (EKVX)
Cc1ccc(C)c2c1C1CCCCC3(OCCCO3)C21O (configuration not stated) | > 100 µM (inactive) | > 100 µM (inactive) | > 100 µM (inactive) | > 100 µM (inactive) | > 100 µM (inactive) | > 100 µM (inactive) | > 100 µM (inactive) | > 100 µM (inactive) | > 100 µM (inactive) | > 100 µM | > 100 µM (inactive) | > 100 µM (inactive) | > 100 µM (inactive) | 31.7 µM (inactive) | 
O=C1c2ccccc2C(=O)C2C1C1C(=O)c3ccccc3C(=O)C21 (configuration not stated) | 33.3 µM (inactive) | > 100 µM (inactive) | > 100 µM (inactive) |  | > 100 µM (inactive) | 42.3 µM (inactive) | > 100 µM (inactive) | 49.7 µM (inactive) | > 100 µM (inactive) | 8.69 µM | > 100 µM (inactive) | 78.2 µM (inactive) | > 100 µM (inactive) | 57.4 µM (inactive) | > 100 µM (inactive)
N#CCCN(C1=NN(C(=O)CC(=O)Nc2ccc(Cl)cc2)C(c2ccccc2)C1)c1ccc(Cl)cc1 (configuration not stated) | > 100 µM (inactive) | > 100 µM (inactive) | > 100 µM (inactive) | > 100 µM (inactive) | > 100 µM (inactive) | > 100 µM (inactive) | > 100 µM (inactive) | > 100 µM (inactive) | > 100 µM (inactive) | > 100 µM | > 100 µM (inactive) | > 100 µM (inactive) | > 100 µM (inactive) | > 100 µM (inactive) | > 100 µM (inactive)
CN(C)c1ccc(/C=C/c2ccc(/C=C/c3ccc(N(C)C)cc3)cc2)cc1 | > 100 µM (inactive) | 41.2 µM (inactive) | > 100 µM (inactive) | 83.9 µM (inactive) | 75.5 µM (inactive) | > 100 µM (inactive) | > 100 µM (inactive) | > 100 µM (inactive) | > 100 µM (inactive) | > 100 µM | > 100 µM (inactive) | > 100 µM (inactive) | > 100 µM (inactive) | > 100 µM (inactive) | > 100 µM (inactive)
COc1ccc(CNc2cnc3ccc(N)cc3n2)cc1OC | > 100 µM (inactive) | 79.6 µM (inactive) | 41.3 µM (inactive) | 53.8 µM (inactive) | > 100 µM (inactive) | > 100 µM (inactive) | > 100 µM (inactive) | > 100 µM (inactive) | 60 µM (inactive) | > 100 µM | > 100 µM (inactive) | > 100 µM (inactive) | > 100 µM (inactive) | 66.7 µM (inactive) | > 100 µM (inactive)
O=c1sc(-c2nc3ccccc3[nH]2)c(/N=C/c2ccccc2)n1-c1ccccc1 | 40.3 µM (inactive) | > 100 µM (inactive) | 28.4 µM (inactive) |  | 75 µM (inactive) | > 100 µM (inactive) | 35.6 µM (inactive) | 73.3 µM (inactive) | 56.4 µM (inactive) | 74.1 µM |  | 91.4 µM (inactive) | 48.9 µM (inactive) | 21.6 µM (inactive) | > 100 µM (inactive)
Cc1nc(-n2nc(-c3ccccc3)cc2-c2ccccc2)sc1C(=O)/C=C/c1cccc([N+](=O)[O-])c1 | 11.2 µM (inactive) | 11.6 µM (inactive) | 26.5 µM (inactive) |  | 8.75 µM (inactive) | 23.7 µM (inactive) | 28.4 µM (inactive) | 2.62 µM (inactive) | 17 µM (inactive) | 16.8 µM | 25.8 µM (inactive) | 12.3 µM (inactive) |  | 5.73 µM (inactive) | 34.7 µM (inactive)
O=C(NO)c1ccc(O)c(O)c1 | > 10 µM (inactive) | > 100 µM (inactive) | 27.8 µM (inactive) | > 100 µM (inactive) | 26.5 µM (inactive) | 94.6 µM (inactive) | 79.1 µM (inactive) | > 100 µM (inactive) | > 100 µM (inactive) | 98.4 µM | 70.3 µM (inactive) | > 100 µM (inactive) | > 100 µM (inactive) | > 100 µM (inactive) | > 100 µM (inactive)
C=CCC(N(C)C(=O)[C@H](Cc1ccccc1)NC(=O)OCc1ccccc1)P(=O)(Oc1ccccc1)Oc1ccccc1 (some centres not stated) | > 100 µM (inactive) | 5.5 µM (inactive) | > 100 µM (inactive) | 5.9 µM (inactive) | 9.2 µM (inactive) |  | > 100 µM (inactive) | > 100 µM (inactive) | 8.43 µM (inactive) |  | 6.1 µM (inactive) | > 100 µM (inactive) | > 100 µM (inactive) | 80.5 µM (inactive) | > 100 µM (inactive)
